Test results as given in US5054434A, “Suppression of ammonia odors from animal wastes” (W. R. Grace & Co.-Conn., priority 1989, dated 1991).
Counter-ions that a name gives are not always drawn.

Tests used:
Bacillus pasteurii = assay: Ammonia accumulation from synthetic urine on rice hulls with live urease-producing bacteria; details: 24 mg acid, 6 g rice hulls, 24 g synthetic urine, 37.5° C., after one day
jack bean urease = jack bean urease (Canavalia ensiformis, UniProt P07374); assay: Ammonia accumulation from synthetic urine with urease on treated bedding; assay type: biochemical; details: for ammonia smell in capped bottle: 12 mg acid, 15 g synthetic urine with 200 units urease, 37.5° C., after 4 hr; for control of accumulation of ammonia: procedure of Example 1
Protocol: To test the effectiveness of the acid the following procedure has been used. A synthetic urine is made by combining 2.3 wt % urea and 1.1 wt % sodium chloride. To mimic the presence of bacteria, 200 units of jack bean urease is added to the synthetic urine. Jack bean urease is a readily available form of urease which is suitable for use in this context because useases from most natural sources appear to act similarly. See "Jack Bean Urease (EC 3.5.1.5).8. […] Chem. Soc. 1986, 108, 7124-7125.
This urine is then poured over a sample of bedding or other absorbent material to which the acid has been applied. The treated sample is covered so that any gases produced may accumulate. The presence of ammonia is tested for by using Draeger tubes.
Two 8 oz. polyethylene bottles were charged with 15 g of rice hulls and 15 g of sawdust, respectively. […] The bottles were capped, and incubated in a shaker bath at 37.5° C. […] By contrast, identical bottles not containing citric acid smelled strongly of ammonia.

[1] = smell of the acid itself; cited from earlier work
rabbit = details: cited from earlier work
[2] = cited from earlier work
urease = details: literature statement (Mobley and Hausinger 1989); cited from earlier work

jack bean urease, sequence (P07374 whole entry, looked up): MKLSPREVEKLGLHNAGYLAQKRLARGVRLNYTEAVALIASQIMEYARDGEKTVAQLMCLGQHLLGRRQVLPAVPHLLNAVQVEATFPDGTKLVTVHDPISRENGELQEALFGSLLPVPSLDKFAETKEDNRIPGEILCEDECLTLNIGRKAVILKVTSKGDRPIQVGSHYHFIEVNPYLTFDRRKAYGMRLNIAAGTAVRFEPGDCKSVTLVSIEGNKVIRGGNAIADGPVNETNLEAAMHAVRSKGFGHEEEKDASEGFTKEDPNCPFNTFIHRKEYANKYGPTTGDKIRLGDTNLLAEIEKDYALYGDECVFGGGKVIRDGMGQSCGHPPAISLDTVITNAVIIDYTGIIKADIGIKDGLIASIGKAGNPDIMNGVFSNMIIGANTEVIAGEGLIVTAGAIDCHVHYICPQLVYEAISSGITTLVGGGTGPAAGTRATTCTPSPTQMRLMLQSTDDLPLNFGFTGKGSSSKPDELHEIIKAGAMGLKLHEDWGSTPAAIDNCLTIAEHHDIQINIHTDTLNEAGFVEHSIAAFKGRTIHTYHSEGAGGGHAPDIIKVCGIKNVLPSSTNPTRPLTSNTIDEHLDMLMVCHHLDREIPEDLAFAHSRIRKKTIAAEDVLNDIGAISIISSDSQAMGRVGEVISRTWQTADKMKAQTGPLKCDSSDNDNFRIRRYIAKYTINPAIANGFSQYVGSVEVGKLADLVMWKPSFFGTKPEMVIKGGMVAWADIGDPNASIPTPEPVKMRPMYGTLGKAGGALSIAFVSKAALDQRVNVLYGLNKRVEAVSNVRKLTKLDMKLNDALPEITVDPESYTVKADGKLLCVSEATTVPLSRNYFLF

## O=C(O)CC(O)(CC(=O)O)C(=O)O [Citric, citric acid]
Bacillus pasteurii
  ammonia in bottle measured using a Draeger tube: less than 5 ppm
Jack bean urease; 15 g rice hulls
  ammonia smell in capped bottle: no ammonia smell could be detected
Jack bean urease; 15 g sawdust
  ammonia smell in capped bottle: no ammonia smell could be detected
[1]
  Smell: None

## O=C(O)/C=C/C(=O)O [Fumaric, fumaric acid]
Jack bean urease; 6 mg
  control of accumulation of ammonia: sufficient to prevent the accumulation of noticeable amounts of ammonia

## O=C(O)CC(O)C(=O)O (stereo not drawn) [Malic, malic acid]
rabbit
  Oral LD50: 5,000 mg/kg
Jack bean urease; 12 mg
  control of accumulation of ammonia: sufficient to prevent the accumulation of noticeable amounts of ammonia
[1]
  Smell: None

## O=C(O)CC(=O)O [Malonic, malonic]
[1]
  Smell: None

## C/C=C/C=C/C(=O)O [Sorbic, sorbic]
[2]
  First pKa: 4.8
[1]
  Smell: None

## O=C(O)CCC(=O)O [Succinic, succinic]
[1]
  Smell: None

## CC(=O)O [acetic acid, reference compound]
[1]
  Smell: strong and unpleasant smell

## OB(O)O [boric acid, reference compound]
Jack bean urease; 36 mg
  control of accumulation of ammonia: not control the accumulation of ammonia
[2]
  First pKa: 9.1

## O=C(O)CC(O)(CC(=O)O)C(=O)O [sodium citrate, reference compound]
Jack bean urease; 24 mg
  control of accumulation of ammonia: not to control the accumulation of ammonia

## phosphoric acid
Jack bean urease; 6 mg
  control of accumulation of ammonia: sufficient to prevent the accumulation of noticeable amounts of ammonia
urease
  inhibition of urease: inhibitor of urease
